Literature values, collected in patent publication US20140106010A1, “Blend of Green and Black Extracts for the Promotion of Health Benefits” (Kemin Industries, Inc., priority 2012, published 2014).

Experiments:
[1] = test system: prostate tissue of C57BL/6 mice; details: 2 weeks decaffeinated black tea extract at 50 mg/g diet
ERK1 and ERK2 = details: TRAMP mice, 0.06% EGCG in drinking water, dorsolateral and ventral prostate

Row | Molecule | greater relative absorption into the prostate compared to EGCG [1] | decreased phosphorylation of ERK1 and ERK2 (ERK1 and ERK2)
1 | O=c1c(O)cc([C@H]2Oc3cc(O)cc(O)c3C[C@H]2O)cc2c([C@H]3Oc4cc(O)cc(O)c4C[C@H]3O)cc(O)c(O)c12 [theaflavin] | 70% | –
2 | epigallocatechin-3-gallate [EGCG] | – | about 50%
